The numbers were not newly measured in article PMC9804910 (Chembiochem, 2022), which cites them from elsewhere.

In the data set the test system is several cancer cell lines. The arrangement: method as in PMID 32319768. The settings on record: cited from earlier work.

Turning to [Ru(DIP)2(sq)](PF6) [Compound 2], the cytotoxicity entry was “nanomolar concentration range”.
